Drawing on patent US20110098283A1, “3-CINNOLINECARBOXAMIDE DERIVATIVES AND THEIR USE FOR TREATING CANCER” (ASTRAZENECA AB, priority 2007, published 2011), this text covers IC50 for 24 compounds.

Some results are limits rather than exact numbers.

The target of this experiment is T1, CSF-1R (His-tagged kinase domain, amino acids 568-912) (Homo sapiens, UniProt P07333).
T1 construct: The His-tagged kinase domain of CSF-1R (i.e., amino acids 568-912, GeneBank ID NM_005211); His; made in house; host or cells: baculovirus infected SF+Express insect cells
T1 sequence (P07333 568-912): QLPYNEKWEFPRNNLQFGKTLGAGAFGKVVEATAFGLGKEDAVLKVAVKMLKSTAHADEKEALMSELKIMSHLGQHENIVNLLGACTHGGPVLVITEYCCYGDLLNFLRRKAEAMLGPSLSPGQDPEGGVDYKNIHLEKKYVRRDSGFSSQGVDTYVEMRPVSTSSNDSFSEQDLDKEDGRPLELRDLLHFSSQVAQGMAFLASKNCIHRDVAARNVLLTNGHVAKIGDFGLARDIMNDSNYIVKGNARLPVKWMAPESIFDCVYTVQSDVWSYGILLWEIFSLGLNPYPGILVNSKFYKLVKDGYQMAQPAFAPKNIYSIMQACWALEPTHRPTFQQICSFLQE
Description: Assay 1: CSF-1R in vitro AlphaScreen Assay. The format is biochemical. The following applies: phosphorylation of pEY substrate; 0.57 nM CSF-1R, 90 μM ATP. As for the experimental part:
Assay 1: CSF-1R in vitro AlphaScreen Assay
Activity of purified CSF-1R was determined in vitro using an Amplified Luminescent Proximity Homogeneous Assay (ALPHA) (Perkin Elmer), which measures phosphorylation of the CSF-1R substrate, biotinylated poly-glutamine-tyrosine peptide (pEY-HTRF CisBio 61GT0BLD), as described below.
The phosphorylation of the CSF-1R substrate in the presence and absence of the compound of interest was determined. […] Plates were incubated at 25° C. for 18 hours in the dark. Phosphorylated substrate was detected by an EnVision plate reader (Perkin Elmer) 680 nm excitation, 520-620 nm emission. Data was graphed and IC50s calculated using Excel Fit (Microsoft).
In the case of `COc1cc2nnc(C(N)=O)c(Nc3ccc(F)cc3F)c2cc1OC` [Example 1, 4-[(2,4-Difluorophenyl)amino]-6,7-dimethoxycinnoline-3-carboxamide], the IC50 is under 3 nM.

In the case of `COc1cc2nnc(C(N)=O)c(Nc3ccc(C)cc3F)c2cc1OC` [Example 2, 4-[(2-Fluoro-4-methylphenyl)amino]-6,7-dimethoxycinnoline-3-carboxamide], the half-inhibitory concentration (IC50) was 8 nM.

For the compound `COc1cc2nnc(C(N)=O)c(Nc3cc(C)ccc3F)c2cc1OC` [Example 4, 4-[(2-Fluoro-5-methylphenyl)amino]-6,7-dimethoxycinnoline-3-carboxamide], the concentration for half-maximal inhibition (IC50) worked out at 5 nM.

In turn, `COc1cc2nnc(C(N)=O)c(Nc3cccc(Cl)c3Cl)c2cc1OC` [Example 5, 4-[(2,3-Dichlorophenyl)amino]-6,7-dimethoxycinnoline-3-carboxamide] showed an IC50 of under 3 nM.

In the case of `CCOc1cc2nnc(C(N)=O)c(Nc3cc(C)ccc3F)c2cc1N1CCN(C)CC1` [Example 6, 7-Ethoxy-4-[(2-fluoro-5-methylphenyl)amino]-6-(4-methylpiperazin-1-yl)cinnoline-3-carboxamide], the concentration for half-maximal inhibition (IC50) is under 3 nM.

In the case of `CCOc1cc2nnc(C(N)=O)c(Nc3cccc(Cl)c3Cl)c2cc1N1CCN(C)CC1` [Example 8, 4-[(2,3-Dichlorophenyl)amino]-7-ethoxy-6-(4-methylpiperazin-1-yl)cinnoline-3-carboxamide], 3 nM corresponded to half-maximal inhibition (IC50). This lies in the single-digit nanomolar range.

`CCOc1cc2nnc(C(N)=O)c(Nc3cccc(Cl)c3F)c2cc1N1CCN(C)CC1` [Example 9, 4-[(3-Chloro-2-fluoro-phenyl)amino]-7-ethoxy-6-(4-methylpiperazin-1-yl)cinnoline-3-carboxamide]: the 50% inhibitory concentration (IC50) is under 15 nM.

`CCOc1cc2nnc(C(N)=O)c(Nc3ccc(C)cc3F)c2cc1N1CCN(C)CC1` [Example 10, 7-Ethoxy-4-[(2-fluoro-4-methyl-phenyl)amino]-6-(4-methylpiperazin-1-yl)cinnoline-3-carboxamide] showed a half-maximal inhibitory concentration (IC50) of under 3 nM.

As for `CCOc1cc2nnc(C(N)=O)c(Nc3ccc(F)cc3F)c2cc1N1CCN(C(C)C)CC1` [Example 11, 4-[(2,4-Difluorophenyl)amino]-7-ethoxy-6-(4-propan-2-ylpiperazin-1-yl)cinnoline-3-carboxamide], the half-inhibitory concentration (IC50) is 8 nM.

As to `CCOc1cc2nnc(C(N)=O)c(Nc3ccc(F)cc3F)c2cc1N1CCN(CC)CC1` [Example 12, 4-[(2,4-Difluorophenyl)amino]-7-ethoxy-6-(4-ethylpiperazin-1-yl)cinnoline-3-carboxamide], half-maximal inhibition (IC50) was put at 5 nM.

For `COc1cc2nnc(C(N)=O)c(Nc3cccc(Cl)c3F)c2cc1N1CCN(C)CC1` [Example 14, 4-[(3-Chloro-2-fluorophenyl)amino]-7-methoxy-6-(4-methylpiperazin-1-yl)cinnoline-3-carboxamide], the IC50 is under 3 nM.

`COc1cc2nnc(C(N)=O)c(Nc3ccc(C)cc3F)c2cc1N1CCN(C(C)(C)C)CC1` [Example 16, 6-(4-tert-Butylpiperazin-1-yl)-4-[(2-fluoro-4-methylphenyl)amino]-7-methoxycinnoline-3-carboxamide] returned an IC50 of 9 nM.

Compound `COCCOc1cc2nnc(C(N)=O)c(Nc3ccc(F)cc3F)c2cc1N1CCN(C)CC1` [Example 17, 4-[(2,4-Difluorophenyl)amino]-7-(2-methoxyethoxy)-6-(4-methylpiperazin-1-yl)cinnoline-3-carboxamide] registered a half-maximal inhibitory concentration (IC50) of under 3 nM.

With `COCCOc1cc2nnc(C(N)=O)c(Nc3ccc(C)cc3F)c2cc1N1CCN(C)CC1` [Example 18, 4-[(2-Fluoro-4-methylphenyl)amino]-7-(2-methoxyethoxy)-6-(4-methylpiperazin-1-yl)cinnoline-3-carboxamide], the concentration for half-maximal inhibition (IC50) was under 3 nM.

The compound `COCCOc1cc2nnc(C(N)=O)c(Nc3cc(C)ccc3F)c2cc1N1CCN(C)CC1` [Example 19, 4-[(2-Fluoro-5-methylphenyl)amino]-7-(2-methoxyethoxy)-6-(4-methylpiperazin-1-yl)cinnoline-3-carboxamide] registered an IC50 of under 3 nM.

For the compound `COc1cc2nnc(C(N)=O)c(Nc3ccc(F)cc3F)c2cc1N1CCN(C)CC1` [Example 20, 4-[(2,4-Difluorophenyl)amino]-7-methoxy-6-(4-methylpiperazin-1-yl)cinnoline-3-carboxamide], the concentration for half-maximal inhibition (IC50) was under 3 nM.

With `COCCOc1cc2nnc(C(N)=O)c(Nc3cccc(Cl)c3F)c2cc1N1CCN(C)CC1` [Example 21, 4-[(3-Chloro-2-fluorophenyl)amino]-7-(2-methoxyethoxy)-6-(4-methylpiperazin-1-yl)cinnoline-3-carboxamide], the IC50 is under 3 nM.

In turn, `COc1cc2nnc(C(N)=O)c(Nc3cc(C)ccc3F)c2cc1N1CCN(C)CC1` [Example 22, 4-[(2-Fluoro-5-methylphenyl)amino]-7-methoxy-6-(4-methylpiperazin-1-yl)cinnoline-3-carboxamide] came in with a concentration for half-maximal inhibition (IC50) of under 3 nM.

Regarding `COc1cc2nnc(C(N)=O)c(Nc3cc(C)ccc3F)c2cc1N1CCN(C(C)C)CC1` [Example 23, 4-[(2-Fluoro-5-methylphenyl)amino]-6-(4-isopropylpiperazin-1-yl)-7-methoxycinnoline-3-carboxamide], the IC50 was under 5 nM.

`COCCOc1cc2nnc(C(N)=O)c(Nc3ccc(F)cc3F)c2cc1N1CCN(C(C)C)CC1` [Example 24, 4-[(2,4-Difluorophenyl)amino]-6-(4-isopropylpiperazin-1-yl)-7-(2-methoxyethoxy)cinnoline-3-carboxamide] came in with an IC50 of under 3 nM.

Compound `CCOc1cc2nnc(C(N)=O)c(Nc3ccc(C)cc3F)c2cc1N1CCN(C(C)C)CC1` [Example 25, 7-Ethoxy-4-[(2-fluoro-4-methylphenyl)amino]-6-(4-isopropylpiperazin-1-yl)cinnoline-3-carboxamide] had a half-maximal inhibitory concentration (IC50) of under 3 nM.

`COc1cc2nnc(C(N)=O)c(Nc3ccc(C)cc3F)c2cc1-c1ccncc1` [Example 26, 4-[(2-Fluoro-4-methylphenyl)amino]-7-methoxy-6-pyridin-4-ylcinnoline-3-carboxamide] gave an IC50 of 51 nM. This counts as double-digit nanomolar.

For the compound `CCOc1cc2nnc(C(N)=O)c(Nc3ccc(C)cc3F)c2cc1N1CCCN(C)CC1` [Example 27, 7-Ethoxy-4-[(2-fluoro-4-methylphenyl)amino]-6-(4-methyl-1,4-diazepan-1-yl)cinnoline-3-carboxamide], the IC50 was under 3 nM.

`CCOc1cc2nnc(C(N)=O)c(Nc3ccc(C)cc3F)c2cc1N1C[C@@H](C)N[C@@H](C)C1` [Example 28, 6-[(3R,5S)-3,5-Dimethylpiperazin-1-yl]-7-ethoxy-4-[(2-fluoro-4-methylphenyl)amino]cinnoline-3-carboxamide]: the IC50 was under 3 nM.
